The results in this text go back to patent US20240368154A1 (GENOSCO Inc., priority 2023, published 2024).

The target in assay [1] is T1, Recombinant ROCK1 (amino acids 1-477) (Homo sapiens, UniProt Q13464).
T1 construct: Recombinant ROCK1 (amino acids 1-477)
Briefly: ROCK inhibition assay, LANCE Ultra TR-FRET kinase assay. The following applies: at Km of ATP (table title); method: 1 mM ATP, 50 nM ULight-CREBtide substrate, 1 hour, room temperature. It counts as biochemical. How it is done:
(§1) Kinase IC50 was determined through an in vitro assay based on LANCE Ultra TR-FRET (Time-Resolved Fluorescence Resonance Energy Transfer) homogeneous technologies method (Perkin Elmer). Recombinant ROCK1 (amino acids 1-477) and ROCK2 (amino acids 5-554) proteins were purchased from Carna Biosciences and SignalChem. Compound activities were measured by Envision and IC50s were calculated. The assays were performed in white LUMITRAC™ 200 96 well half-area microplates from Greiner Bio-One. The kinase reaction buffer consisted of 50 mM HEPES pH 7.5, 1 mM EGTA, 10 mM MgCl2, 2 mM DTT and 0.01% Tween-20. Kinases were incubated with 50 nM (ULight-CREBtide) substrate in the presence of 1 mM (ROCK1) or 1 mM (ROCK2) of ATP. The kinase reaction was carried out for 1 hour before addition of a stopping buffer to a final of 10 mM EDTA and 0.6 nM of LANCE Ultra Europium anti-phospho-CREB (Ser133) antibody (PerkinElmer TRF0200) in LANCE detection buffer. All assay incubations were performed at room temperature, and the microplates were sealed with polyester film during that time. The reaction was incubated for 1 hour, and the signal was read in Envision in TR-FRET mode (excitation at 320 nm and emission at 615/665 nm).
(§2) As used herein, a way to describe potency of inhibitory activity (nM) is a value of inhibitory activity at 50% (IC50).

Assay [2] concerns the target T2, Recombinant ROCK2 (amino acids 5-554) (Homo sapiens, UniProt O75116).
T2 construct: ROCK2 (amino acids 5-554)
The assay is described as above. It counts as biochemical. The settings on record: at Km of ATP (table title); method: 1 mM ATP, 50 nM ULight-CREBtide substrate, 1 hour, room temperature. Here is the method: as §1, §2

A value given as a limit tells only on which side of the number the result lay.

T1 sequence (Q13464 1-477): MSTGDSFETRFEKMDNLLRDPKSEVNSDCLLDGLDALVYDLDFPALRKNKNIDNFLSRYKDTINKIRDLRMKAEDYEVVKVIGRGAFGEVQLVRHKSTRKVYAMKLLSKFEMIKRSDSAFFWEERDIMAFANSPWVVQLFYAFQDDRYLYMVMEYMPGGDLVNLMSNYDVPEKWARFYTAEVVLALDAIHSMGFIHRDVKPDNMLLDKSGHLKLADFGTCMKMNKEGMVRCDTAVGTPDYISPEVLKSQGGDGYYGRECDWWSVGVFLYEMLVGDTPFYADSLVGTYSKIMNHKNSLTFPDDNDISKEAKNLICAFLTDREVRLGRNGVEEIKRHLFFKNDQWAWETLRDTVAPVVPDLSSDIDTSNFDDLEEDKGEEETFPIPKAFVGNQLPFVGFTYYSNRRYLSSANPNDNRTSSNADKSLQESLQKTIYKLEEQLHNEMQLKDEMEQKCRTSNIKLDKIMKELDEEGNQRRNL
T2 sequence (O75116 5-554): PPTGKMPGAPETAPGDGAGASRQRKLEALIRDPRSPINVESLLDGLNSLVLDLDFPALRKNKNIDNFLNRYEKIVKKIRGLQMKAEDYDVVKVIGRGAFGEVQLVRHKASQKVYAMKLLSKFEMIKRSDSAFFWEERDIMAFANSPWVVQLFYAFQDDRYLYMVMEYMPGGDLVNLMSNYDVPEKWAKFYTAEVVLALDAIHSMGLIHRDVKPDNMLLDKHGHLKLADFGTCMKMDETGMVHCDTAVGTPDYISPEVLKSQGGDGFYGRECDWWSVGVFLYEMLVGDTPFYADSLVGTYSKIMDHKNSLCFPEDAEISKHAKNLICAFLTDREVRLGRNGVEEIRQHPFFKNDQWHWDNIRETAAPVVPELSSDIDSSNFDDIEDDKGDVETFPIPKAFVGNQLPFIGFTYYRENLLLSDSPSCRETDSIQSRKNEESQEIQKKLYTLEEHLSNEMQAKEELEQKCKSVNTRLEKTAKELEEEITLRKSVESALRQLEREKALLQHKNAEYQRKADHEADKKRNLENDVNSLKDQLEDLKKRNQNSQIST

Turning to `COc1n[nH]cc1-c1ccc2c(C(=O)C3COc4ccc(Cl)cc4C3)cn(CCO)c2c1` (racemic) [Compound 2-17], the IC50 in assay [1] and in assay [2] was 11 to 50 nM each time.

Regarding `COc1n[nH]cc1-c1ccc2c(C(=O)C3COc4ccc(F)cc4C3)cn(CCO)c2c1` (racemic) [Compound 2-20], the IC50 in assay [1] and in assay [2] was 11 to 50 nM each time.

With `COc1n[nH]cc1-c1ccc2c(C(=O)[C@@H]3COc4ccc(Cl)cc4C3)cn(CCO)c2c1` (single isomer, unassigned) [Compound 2-18], the concentration for half-maximal inhibition (IC50) in assay [1] was 11 to 50 nM; in assay [2], less than 10 nM.

Consider `COc1n[nH]cc1-c1ccc2c(C(=O)[C@H]3COc4ccc(Cl)cc4C3)cn(CCO)c2c1` (single isomer, unassigned) [Compound 2-19], for which the values for the IC50 in assay [1] and in assay [2] were more than 501 nM and 51 to 500 nM, respectively.

Consider `COc1n[nH]cc1-c1ccc2c(C(=O)[C@@H]3COc4ccc(F)cc4C3)cn(CCO)c2c1` (single isomer, unassigned) [Compound 2-21], for which the concentration for half-maximal inhibition (IC50) was 11 to 50 nM in assay [1] and less than 10 nM in assay [2].

Take `COc1n[nH]cc1-c1ccc2c(C(=O)[C@H]3COc4ccc(F)cc4C3)cn(CCO)c2c1` (single isomer, unassigned) [Compound 2-22]: the IC50 was more than 501 nM in assay [1] and 51 to 500 nM in assay [2].

Turning to `COc1n[nH]cc1-c1cc2c(cn1)c(C(=O)C1COc3ccc(Cl)cc3C1)cn2CCO` (stereo not drawn) [Compound 1-1], the half-inhibitory concentration (IC50) in assay [1] and in assay [2] was more than 501 nM each time.

Turning to `O=C(c1cn(CCO)c2nc(-c3c[nH]nc3Cl)ccc12)C1COc2ccc(F)cc2C1` (stereo not drawn) [Compound 1-3], the 50% inhibitory concentration (IC50) in assay [1] was 11 to 50 nM; in assay [2], less than 10 nM.

In the case of `O=C(c1cn(CCO)c2nc(-c3c[nH]nc3Cl)ccc12)C1COc2ccc(Cl)cc2C1` (stereo not drawn) [Compound 1-4], the IC50 in assay [1] is 11 to 50 nM; in assay [2] it was less than 10 nM.

Turning to `O=C(c1cn(CCO)c2cc(-c3c[nH]nc3Cl)cnc12)C1COc2ccc(Cl)cc2C1` (stereo not drawn) [Compound 1-5], the IC50 in assay [1] was in the range of 51 to 500 nM; in assay [2] it was 11 to 50 nM.

For `CC(O)Cn1cc(C(=O)C2COc3ccc(Cl)cc3C2)c2cnc(-c3c[nH]nc3Cl)cc21` (stereo not drawn) [Compound 1-6], the results for the IC50 in assay [1] and in assay [2] were 11 to 50 nM and less than 10 nM, respectively.

`C[C@H](O)Cn1cc(C(=O)C2COc3ccc(Cl)cc3C2)c2cnc(-c3cn[nH]c3Cl)cc21` (stereo partly drawn) [Compound 1-7]: the IC50 is 11 to 50 nM in assay [1] and less than 10 nM in assay [2].

Regarding `C[C@@H](O)Cn1cc(C(=O)C2COc3ccc(Cl)cc3C2)c2cnc(-c3c[nH]nc3Cl)cc21` (stereo partly drawn) [Compound 1-8], the results for the IC50 in assay [1] and in assay [2] were 11 to 50 nM and less than 10 nM, respectively.

Turning to `C[C@H](O)Cn1cc(C(=O)[C@@H]2COc3ccc(Cl)cc3C2)c2cnc(-c3cn[nH]c3Cl)cc21` [Compound 1-9], the IC50 in assay [1] is 11 to 50 nM; in assay [2], less than 10 nM.

In the case of `C[C@@H](O)Cn1cc(C(=O)[C@@H]2COc3ccc(Cl)cc3C2)c2cnc(-c3cn[nH]c3Cl)cc21` [Compound 1-10], the 50% inhibitory concentration (IC50) is 11 to 50 nM in assay [1] and less than 10 nM in assay [2].

With `C[C@H](O)Cn1cc(C(=O)[C@@H]2COc3ccc(Cl)cc3C2)c2cnc(-c3cn[nH]c3Cl)cc21` [Compound 1-11], the IC50 in assay [1] and in assay [2] was 11 to 50 nM throughout.

As to `C[C@H](O)Cn1cc(C(=O)[C@@H]2COc3ccc(Cl)cc3C2)c2cnc(-c3cn[nH]c3Cl)cc21` [Compound 1-12], the concentration for half-maximal inhibition (IC50) in assay [1] was 11 to 50 nM; in assay [2], less than 10 nM.

As for `O=C(c1cn(CCO)c2cc(-c3c[nH]nc3Cl)ncc12)C1COc2ccc(F)cc2C1` (stereo not drawn) [Compound 1-13], the half-maximal inhibitory concentration (IC50) in assay [1] is 11 to 50 nM; in assay [2] it was less than 10 nM.

As to `CC(O)Cn1cc(C(=O)C2COc3ccc(F)cc3C2)c2cnc(-c3c[nH]nc3Cl)cc21` (stereo not drawn) [Compound 1-14], the IC50 in assay [1] and in assay [2] was less than 10 nM in each case.

For `Cc1n[nH]cc1-c1ccc2c(C(=O)C3COc4ccc(F)cc4C3)cn(CCO)c2n1` (stereo not drawn) [Compound 1-15], the half-maximal inhibitory concentration (IC50) in assay [1] and in assay [2] was less than 10 nM in each case.

With `CC(C)(O)Cn1cc(C(=O)C2COc3ccc(Cl)cc3C2)c2cnc(-c3c[nH]nc3Cl)cc21` (stereo not drawn) [Compound 1-16], the figures for the half-inhibitory concentration (IC50) in assay [1] and in assay [2] were 11 to 50 nM and less than 10 nM, respectively.

For `CC(C)(O)Cn1cc(C(=O)[C@@H]2COc3ccc(Cl)cc3C2)c2cnc(-c3c[nH]nc3Cl)cc21` [Compound 1-17], the IC50 in assay [1] and in assay [2] was less than 10 nM each time.

Regarding `CC(C)(O)Cn1cc(C(=O)[C@H]2COc3ccc(Cl)cc3C2)c2cnc(-c3c[nH]nc3Cl)cc21` [Compound 1-18], the IC50 in assay [1] was more than 501 nM; in assay [2], 51 to 500 nM.

On to `CC(C)(O)Cn1cc(C(=O)[C@@H]2COc3ccc(Cl)cc3C2)c2cnc(-c3c[nH]nc3Cl)cc21` [Compound 1-19], for which the IC50 in assay [1] and in assay [2] was less than 10 nM in each case.

For `C[C@H](O)Cn1cc(C(=O)C2COc3ccc(F)cc3C2)c2cnc(-c3c[nH]nc3Cl)cc21` (stereo partly drawn) [Compound 1-20], the IC50 in assay [1] and in assay [2] was less than 10 nM in each case.

In the case of `C[C@@H](O)Cn1cc(C(=O)C2COc3ccc(F)cc3C2)c2cnc(-c3c[nH]nc3Cl)cc21` (stereo partly drawn) [Compound 1-21], the IC50 in assay [1] and in assay [2] was less than 10 nM each time.

For the compound `COc1ccc2c(c1)CC(C(=O)c1cn(CCO)c3nc(-c4c[nH]nc4Cl)ccc13)CO2` (stereo not drawn) [Compound 1-22], the IC50 in assay [1] and in assay [2] was less than 10 nM throughout.

In the case of `COc1ccc2c(c1)CC(C(=O)c1cn(CCO)c3cc(-c4c[nH]nc4Cl)ncc13)CO2` (stereo not drawn) [Compound 1-23], the IC50 in assay [1] and in assay [2] was less than 10 nM each time.

Consider `COc1ccc2c(c1)CC(C(=O)c1cn(CCO)c3cc(-c4cn[nH]c4F)ncc13)CO2` (stereo not drawn) [Compound 1-24], for which the IC50 in assay [1] and in assay [2] was less than 10 nM in each case.

As to `COc1ccc2c(c1)CC(C(=O)c1cn(C[C@H](C)O)c3cc(-c4cn[nH]c4F)ncc13)CO2` (stereo partly drawn) [Compound 1-25], the results for the IC50 in assay [1] and in assay [2] were 11 to 50 nM and less than 10 nM, respectively.

For the compound `COc1ccc2c(c1)C[C@H](C(=O)c1cn(C[C@H](C)O)c3cc(-c4cn[nH]c4F)ncc13)CO2` [Compound 1-26], the IC50 in assay [1] and in assay [2] was less than 10 nM throughout.

As for `COc1ccc2c(c1)CC(C(=O)c1cn(C[C@H](C)O)c3cc(-c4cn[nH]c4Cl)ncc13)CO2` (stereo partly drawn) [Compound 1-27], the IC50 in assay [1] and in assay [2] was less than 10 nM in each case.

On to `COc1ccc2c(c1)CC(C(=O)c1cn(CC(C)(C)O)c3cc(-c4cn[nH]c4F)ncc13)CO2` (stereo not drawn) [Compound 1-28], for which the half-maximal inhibitory concentration (IC50) in assay [1] and in assay [2] was less than 10 nM each time.

`COc1ccc2c(c1)CC(C(=O)c1cn(CC(C)(C)O)c3cc(-c4cn[nH]c4Cl)ncc13)CO2` (stereo not drawn) [Compound 1-29]: the IC50 in assay [1] and in assay [2] was less than 10 nM throughout.

Consider `C[C@H](O)Cn1cc(C(=O)[C@@H]2COc3ccc(Cl)cc3C2)c2cnc(-c3cn[nH]c3F)cc21` [Compound 1-30], for which the IC50 in assay [1] was 11 to 50 nM; in assay [2] it was less than 10 nM.

With `CC(C)(O)Cn1cc(C(=O)[C@@H]2COc3ccc(Cl)cc3C2)c2cnc(-c3cn[nH]c3F)cc21` [Compound 1-31], the IC50 in assay [1] and in assay [2] was less than 10 nM throughout.

As for `CC(C)(O)Cn1cc(C(=O)[C@@H]2COc3ccc(Cl)cc3C2)c2cnc(-c3c[nH]nc3Cl)cc21` [Compound 1-32], the half-inhibitory concentration (IC50) in assay [1] is 11 to 50 nM; in assay [2], less than 10 nM.

Regarding `COc1[nH]ncc1-c1cc2c(cn1)c(C(=O)[C@@H]1COc3ccc(Cl)cc3C1)cn2C[C@H](C)O` [Compound 1-33], the values for the IC50 in assay [1] and in assay [2] were 11 to 50 nM and less than 10 nM, respectively.

As to `COc1[nH]ncc1-c1cc2c(cn1)c(C(=O)[C@H]1COc3ccc(Cl)cc3C1)cn2C[C@H](C)O` [Compound 1-34], the IC50 in assay [1] was 51 to 500 nM; in assay [2], 11 to 50 nM.

For the compound `CC[C@H](O)Cn1cc(C(=O)C2COc3ccc(Cl)cc3C2)c2cnc(-c3cn[nH]c3Cl)cc21` (stereo partly drawn) [Compound 1-35], the IC50 in assay [1] is 51 to 500 nM; in assay [2], 11 to 50 nM.

For the compound `CC[C@H](O)Cn1cc(C(=O)C2COc3ccc(Cl)cc3C2)c2cnc(-c3cn[nH]c3F)cc21` (stereo partly drawn) [Compound 1-36], the IC50 in assay [1] was in the range of 51 to 500 nM; in assay [2] it was 11 to 50 nM.

Turning to `O=C(c1cn(CC2CC(O)C2)c2cc(-c3cn[nH]c3F)ncc12)C1COc2ccc(Cl)cc2C1` (stereo not drawn) [Compound 1-37], the half-inhibitory concentration (IC50) in assay [1] lay in the range of 51 to 500 nM; in assay [2] it was 11 to 50 nM.

Turning to `O=C(c1cn(CC2CC(O)C2)c2cc(-c3cn[nH]c3Cl)ncc12)C1COc2ccc(Cl)cc2C1` (stereo not drawn) [Compound 1-38], the IC50 in assay [1] was 11 to 50 nM; in assay [2] it was less than 10 nM.

Turning to `CC(O)Cn1cc(C(=O)C2COc3ccc(Cl)cc3C2)c2ccc(-c3c[nH]nc3Cl)cc21` (stereo not drawn) [Compound 1-39], the IC50 in assay [1] and in assay [2] was 11 to 50 nM each time.

For the compound `CC(O)Cn1cc(C(=O)[C@@H]2COc3ccc(Cl)cc3C2)c2ccc(-c3c[nH]nc3Cl)cc21` (stereo partly drawn) [Compound 1-40], the IC50 in assay [1] was 11 to 50 nM; in assay [2], less than 10 nM.
